PubChem BioAssay (NCI)
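96-well plates; 48 h exposure; 5 concentrations. Endpoints by linear interpolation between flanking doses. Not reached: highest tested concentration assigned. TGI is the concentration that stops growth completely.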

Legend:
Assay in all cases: growth of human tumour cells (NCI), 48 h
CAKI-1 renal = test system: CAKI-1 renal
MDA-MB-231 breast = test system: MDA-MB-231 breast
PC-3 prostate = test system: PC-3 prostate
UACC-62 melanoma = test system: UACC-62 melanoma
IGROV1 ovarian = test system: IGROV1 ovarian
K-562 leukemia = test system: K-562 leukemia
SK-MEL-28 melanoma = test system: SK-MEL-28 melanoma
SK-OV-3 ovarian = test system: SK-OV-3 ovarian
OVCAR-3 ovarian = test system: OVCAR-3 ovarian
BT-549 breast = test system: BT-549 breast
HCT-15 colon = test system: HCT-15 colon
HCT-116 colon = test system: HCT-116 colon
M14 melanoma = test system: M14 melanoma
T-47D breast = test system: T-47D breast
SF-268 CNS = test system: SF-268 CNS
HOP-62 NSCLC = test system: HOP-62 NSCLC
DU-145 prostate = test system: DU-145 prostate
SNB-75 CNS = test system: SNB-75 CNS
UACC-257 melanoma = test system: UACC-257 melanoma
U251 CNS = test system: U251 CNS
SN12C renal = test system: SN12C renal
SK-MEL-5 melanoma = test system: SK-MEL-5 melanoma
HT29 colon = test system: HT29 colon
NCI-H522 lung = test system: NCI-H522 lung
NCI-H23 lung = test system: NCI-H23 lung
SF-295 CNS = test system: SF-295 CNS
LOX IMVI melanoma = test system: LOX IMVI melanoma
MALME-3M melanoma = test system: MALME-3M melanoma
RXF 393 renal = test system: RXF 393 renal
SNB-19 CNS = test system: SNB-19 CNS
EKVX NSCLC = test system: EKVX NSCLC
KM12 colon = test system: KM12 colon
TK-10 renal = test system: TK-10 renal
MDA-MB-435 = test system: MDA-MB-435
HL-60(TB) leukemia = test system: HL-60(TB) leukemia
SR leukemia = test system: SR leukemia
MDA-N = test system: MDA-N
786-0 renal = test system: 786-0 renal
SF-539 CNS = test system: SF-539 CNS
RPMI-8226 leukemia = test system: RPMI-8226 leukemia
CCRF-CEM leukemia = test system: CCRF-CEM leukemia
OVCAR-5 ovarian = test system: OVCAR-5 ovarian
COLO 205 colon = test system: COLO 205 colon
HCC-2998 colon = test system: HCC-2998 colon
MOLT-4 leukemia = test system: MOLT-4 leukemia
A549 NSCLC = test system: A549 NSCLC
OVCAR-8 ovarian = test system: OVCAR-8 ovarian
ACHN renal = test system: ACHN renal
NCI-H226 lung = test system: NCI-H226 lung
MCF7 breast = test system: MCF7 breast
NCI/ADR-RES ovarian = test system: NCI/ADR-RES ovarian
UO-31 renal = test system: UO-31 renal
SW-620 colon = test system: SW-620 colon
A498 renal = test system: A498 renal
NCI-H460 lung = test system: NCI-H460 lung
HS 578T breast = test system: HS 578T breast
HOP-92 NSCLC = test system: HOP-92 NSCLC
SK-MEL-2 melanoma = test system: SK-MEL-2 melanoma
OVCAR-4 ovarian = test system: OVCAR-4 ovarian

Measured: TGI

C[N+](C)(C)CCOP(=O)([O-])OCCNC(=O)c1ccc2ccccc2c1
> 100 µM: CAKI-1 renal | MDA-MB-231 breast | PC-3 prostate | UACC-62 melanoma | IGROV1 ovarian | K-562 leukemia | SK-MEL-28 melanoma | SK-OV-3 ovarian | OVCAR-3 ovarian | BT-549 breast | HCT-15 colon | HCT-116 colon | M14 melanoma | T-47D breast | SF-268 CNS | HOP-62 NSCLC | DU-145 prostate | SNB-75 CNS | UACC-257 melanoma | U251 CNS | SN12C renal | SK-MEL-5 melanoma | HT29 colon | NCI-H522 lung | NCI-H23 lung | SF-295 CNS | LOX IMVI melanoma | MALME-3M melanoma | RXF 393 renal | SNB-19 CNS | EKVX NSCLC | KM12 colon | TK-10 renal | MDA-MB-435 | HL-60(TB) leukemia | SR leukemia | MDA-N | 786-0 renal | SF-539 CNS | RPMI-8226 leukemia | CCRF-CEM leukemia | OVCAR-5 ovarian | COLO 205 colon | HCC-2998 colon | MOLT-4 leukemia | A549 NSCLC | OVCAR-8 ovarian | ACHN renal | NCI-H226 lung | MCF7 breast | NCI/ADR-RES ovarian | UO-31 renal | SW-620 colon

CC1CC(Br)C(=O)O1 (centres undefined)
> 100 µM: CAKI-1 renal | MDA-MB-231 breast | PC-3 prostate | UACC-62 melanoma | IGROV1 ovarian | K-562 leukemia | SK-MEL-28 melanoma | SK-OV-3 ovarian | OVCAR-3 ovarian | BT-549 breast | HCT-15 colon | HCT-116 colon | A498 renal | M14 melanoma | T-47D breast | SF-268 CNS | HOP-62 NSCLC | NCI-H460 lung | DU-145 prostate | SNB-75 CNS | UACC-257 melanoma | U251 CNS | SN12C renal | HS 578T breast | HOP-92 NSCLC | SK-MEL-5 melanoma | HT29 colon | NCI-H522 lung | NCI-H23 lung | SF-295 CNS | LOX IMVI melanoma | SK-MEL-2 melanoma | MALME-3M melanoma | RXF 393 renal | SNB-19 CNS | EKVX NSCLC | KM12 colon | TK-10 renal | MDA-MB-435 | HL-60(TB) leukemia | MDA-N | OVCAR-4 ovarian | SF-539 CNS | RPMI-8226 leukemia | CCRF-CEM leukemia | OVCAR-5 ovarian | COLO 205 colon | HCC-2998 colon | MOLT-4 leukemia | A549 NSCLC | OVCAR-8 ovarian | ACHN renal | MCF7 breast | NCI/ADR-RES ovarian | UO-31 renal | SW-620 colon
